Assays:
[1] = pH study: change in pH of lesion forming solution after addition of calcium compounds; assay type: physicochemical; settings: 8 mM Ca added to lesion forming solution (pH 5.0), stirred 30 minutes at 37 degrees C.
Experimental: Powders were added and allowed to stir for 30 minutes at 37 degrees C. before measuring the pH.

[2] = pH cycling study: remineralization of artificial lesions (SMH, EFU); design: species or system Bovine; settings: five days, calcium compounds used together with 100 ppm F treatments
Experimental: A pH cycling study was performed. The study was developed to simulate the spike in acid production after three meals during the course of a day.
Bovine enamel specimens were polished and artificial lesions formed by immersion of the specimens in a lesion forming solution consisting of 0.1 M lactic acid and 0.2% Carbopol C907 which was 50% saturated with hydroxyapatite and adjusted to pH 5.0. The average specimen surface microhardness (SMH) was determined from four indentations on the surface of each specimen, using a Vickers hardness indenter at a load of 200 g for 15 seconds. […] Specimens were divided into subgroups of 18 specimens balanced by post-demineralization surface microhardness (SMH) values.
Remineralization efficacy was evaluated under two different cyclic treatment regimens. Both regimens consisted of three one-minute fluoride treatment periods (100 ppm, pH=6.5), and three one-hour acid challenges in the lesion forming solution, with calcium introduced during the acid challenges.
The difference between the two treatment regimens was the relative order of the fluoride treatments and the acid challenges. In Regimen I, shown in Table 1, the demineralization event (Demin: Lactic Acid Challenge) occurred first, followed by the remineralization event (Remin: Artificial Saliva Soak). In Regimen II, shown in Table 2, the order of events was reversed, and the remineralization event occurred first, followed by the demineralization event.
During the acid challenge periods (Demin: Lactic Acid Challenge), a 15 ml aliquot of the lesion forming solution was transferred to a treatment beaker containing six enamel specimens. Calcium compounds at equimolar calcium concentration, were introduced to the solution 20 minutes after the start of the acid challenge.
The pH cycling regimens were repeated for five consecutive days. […] As a negative control, the calcium sources, as well as the fluoride source, were replaced with water. Also, for comparison purposes, a study was performed with only the fluoride source.
After five days of treatment and pH cycling, remineralization efficacy was measured from change in surface microhardness (SMH) and enamel fluoride uptake (EFU). The surface microhardness was measured as described above, where the indentations were measured next to the baseline indentations. The fluoride content was determined by micro-drilling to a depth of 100 micron into each tooth. The enamel powder from the drill hole was collected, dissolved (20 microliter of HClO4, 40 microliter Citrate/EDTA Buffer and 40 microliter deionized (DI) water) and analyzed for fluoride by comparison to a similarly prepared standard curve.

Row | SMILES | ΔpH [1] | EFU, comparison between treatment groups (in words) ([2]; Regimen I) | SMH, comparison between treatment groups (in words) ([2]; Regimen I) | EFU, comparison between treatment groups (in words) ([2]; Regimen II) | SMH, comparison between treatment groups (in words) ([2]; Regimen II)
1 | O=P([O-])([O-])[O-].O=P([O-])([O-])[O-].[Ca+2].[Ca+2].[Ca+2] [Alpha-Tricalcium Phosphate] | +0.33 | comparable to the EFU of the highly soluble calcium compound (Calcium Chloride Dihydrate) treated specimens | comparable to the SMH of the highly soluble calcium compound (Calcium Chloride Dihydrate) treated specimens | equivalent to the EFU of the specimens only treated with 100 ppm F | comparable to the SMH of the specimens only treated with 100 ppm F
2 | O.O.[Ca+2].[Cl-].[Cl-] [Calcium Chloride Dihydrate, reference compound] | – | – | – | highest values of EFU | highest values of SMH
